Format in all cases: cell-based
Assay [1] concerns collagen-stimulated platelet aggregation. Nature of the assay: Collagen-stimulated platelet aggregation in concentrated human platelet-rich plasma (aggregometer). The settings on record: human concentrated PRP; for pIC50: aggregation factor collagen 10 μg/ml, 37° C., read-out: IC50 antiplatelet aggregation activity, Collagen. The procedure:
To measure the activity against collagen-stimulated platelet aggregation of the novel compound identified from the Ginkgo biloba bark, concentrated human platelet-rich-plasma (PRP) was first prepared. The PRP used in the present invention was obtained by collecting blood from volunteers in Hallym University Medical Center, centrifuging the blood at 1,000 rpm and room temperature for 10 minutes to collect pure supernatant PRP and centrifuging the supernatant PRP at 3,000 rpm and room temperature for 10 minutes. The obtained PRP was separated into platelet-poor plasma (PPP) and platelets (PLTs). Then, concentrated PRP was prepared in the following manner. That is, platelets (PLTs) were suspended in a suitable amount of the supernatant PPP and measured for absorbance at 660 nm using a UV/visible spectrophotometer. Based on the measured absorbance, the suspension was further diluted with an excess of PPP to prepare concentrated PRP containing 5×10^8 platelets/ml. Herein, an OD value of 1.1 at 660 nm means 1×10^8 PLTs. A washing buffer used in the present invention was a pH 6.5 buffer containing 129 mM NaCl, 10.9 mM sodium citrate dihydrate, 8.9 mM NaHCO3, 1 mg/ml glucose, 10 mM tris-hydroxymethylaminomethane, 2.8 mM KCl, 0.8 mM KH2PO4 and 2 mM EDTA. Also, a suspension buffer used in this test example was a pH 6.9 buffer, which was the same as said washing buffer, except that it contained no EDTA. The platelet aggregation inhibitory effect of the novel compound was examined using the prepared concentrated PRP in the following manner. First, the concentrated PRP was used to make 500 μl of an in vitro reaction system. For use as a control group, the concentrated PRP was stabilized at 37° C. for 3 minutes and treated with collagen (Chrono-LogCo.) as a stimulating agent at a concentration of 10 μg/ml, and the aggregation of platelets in the reaction system was induced for 5 minutes. Meanwhile, the same reaction system as described above was treated with the novel compound, was allowed to react with the novel compound for 3 minutes, was stimulated with collagen for 6 minutes according to the same method as described above so as to induce platelet aggregation, and then was measured for aggregated platelets. The aggregation of platelets was measured with a change in light transmission using an aggregometer (Chrono-Log Co.) at 37° C. The measurement results are shown in Table 1 below and FIGS. 6, 7 and 8. Table 1 summarizes the antiplatelet aggregation activities of aspirin, the novel compound and ginkgolide A and B against platelet aggregation factors, including ADP, collagen and arachidonic acid. […] In the case of the group treated with the novel compound, when arachidonic acid was used as the aggregation factor, the aggregation of platelets occurred only upon stimulation with 1,000 μM (i.e., 1 mM) or higher concentration of arachidonic acid.

Assay [2] concerns ADP-induced platelet aggregation. Kind of assay: ADP-stimulated platelet aggregation in concentrated human platelet-rich plasma (aggregometer). The settings on record: aggregation factor ADP, human concentrated PRP, —: no effect. The procedure: (§1) To measure the activity against collagen-stimulated platelet aggregation of the novel compound identified from the Ginkgo biloba bark, concentrated human platelet-rich-plasma (PRP) was first prepared. The PRP used in the present invention was obtained by collecting blood from volunteers in Hallym University Medical Center, centrifuging the blood at 1,000 rpm and room temperature for 10 minutes to collect pure supernatant PRP and centrifuging the supernatant PRP at 3,000 rpm and room temperature for 10 minutes. The obtained PRP was separated into platelet-poor plasma (PPP) and platelets (PLTs). Then, concentrated PRP was prepared in the following manner. That is, platelets (PLTs) were suspended in a suitable amount of the supernatant PPP and measured for absorbance at 660 nm using a UV/visible spectrophotometer. Based on the measured absorbance, the suspension was further diluted with an excess of PPP to prepare concentrated PRP containing 5×10^8 platelets/ml. Herein, an OD value of 1.1 at 660 nm means 1×10^8 PLTs. A washing buffer used in the present invention was a pH 6.5 buffer containing 129 mM NaCl, 10.9 mM sodium citrate dihydrate, 8.9 mM NaHCO3, 1 mg/ml glucose, 10 mM tris-hydroxymethylaminomethane, 2.8 mM KCl, 0.8 mM KH2PO4 and 2 mM EDTA. Also, a suspension buffer used in this test example was a pH 6.9 buffer, which was the same as said washing buffer, except that it contained no EDTA. The platelet aggregation inhibitory effect of the novel compound was examined using the prepared concentrated PRP in the following manner. First, the concentrated PRP was used to make 500 μl of an in vitro reaction system. For use as a control group, the concentrated PRP was stabilized at 37° C. for 3 minutes and treated with collagen (Chrono-LogCo.) as a stimulating agent at a concentration of 10 μg/ml, and the aggregation of platelets in the reaction system was induced for 5 minutes. Meanwhile, the same reaction system as described above was treated with the novel compound, was allowed to react with the novel compound for 3 minutes, was stimulated with collagen for 6 minutes according to the same method as described above so as to induce platelet aggregation, and then was measured for aggregated platelets. The aggregation of platelets was measured with a change in light transmission using an aggregometer (Chrono-Log Co.) at 37° C. The measurement results are shown in Table 1 below and FIGS. 6, 7 and 8. Table 1 summarizes the antiplatelet aggregation activities of aspirin, the novel compound and ginkgolide A and B against platelet aggregation factors, including ADP, collagen and arachidonic acid. […]

Assay [3] deals with arachidonic acid-stimulated platelet aggregation. Kind of assay: Arachidonic acid-stimulated platelet aggregation in concentrated human platelet-rich plasma (aggregometer). The settings on record: for arachidonic acid-stimulated platelet aggregation in treated groups: groups treated with the compound. On the procedure:
as §1

Setting [4] is: arachidonic acid as aggregation factor.

pIC50: −log10 of the molar value. Read-outs that look alike come from different tables or passages of the source.

Consider four molecules from patent US7341750B2, “Compound isolated from Ginkgo biloba bark, isolation method thereof and antiplatelet composition containing the same” (Candleflower Co., Ltd., priority 2006, dated 2008).

Turning to `CC(=O)Oc1ccccc1C(=O)O` [Aspirin], the pIC50 (usually the negative decadic logarithm of the IC50, by convention in mol/L) was 3.69 in assay [1] (Platelet) and 3.50 in assay [2] (Platelet, read-out: IC50 antiplatelet aggregation activity, ADP). Also, in assay [1], the “inhibitory activity on collagen-stimulated platelet aggregation (FIGS. 6-8)” value (“inhibitory activity” below) is given as “inhibited platelet aggregation in a concentration-dependent manner”.
On to `COc1cc(-c2oc3cc(OC)c(CCCO)cc3c2C=O)ccc1O` [Novel compound, 5-(3-hydroxyprophyl)-6-methoxy-2-(3′-methoxy-4′-hydroxyphenyl)-3-benzo[b]furancarbaldehyde], for which the pIC50 is 3.17 in assay [1] (Platelet) and under 3.00 in assay [3] (Platelet, aggregation factor arachidonic acid, human concentrated PRP, —: no effect, read-out: IC50 antiplatelet aggregation activity, AA). Moreover, the “inhibitory activity” value in assay [1] is on record as “inhibited collagen-stimulated platelet aggregation in a concentration-dependent manner”. The “concentration of arachidonic acid at which aggregation of platelets occurred in the treated group” value in assay [3] (arachidonic acid as aggregation factor, group treated with the compound) was ≥ 1,000 μM. In assay [2], the “IC50 antiplatelet aggregation activity, ADP” value is “did not show an effect”.
Take `C[C@@H]1C(=O)O[C@H]2C[C@@]34[C@H]5C[C@@H](C(C)(C)C)[C@]36[C@@H](OC(=O)[C@@H]6O)O[C@@]4(C(=O)O5)[C@]21O` [Gingkolide A]: in assay [1], the pIC50 is 3.32 and the “inhibitory activity” value is listed as “inhibited collagen-stimulated platelet aggregation in a concentration-dependent manner”. Further, the “arachidonic acid-stimulated platelet aggregation in treated groups” value in assay [3] (setting [4]) is “did not occur”. In addition, in assay [2], the “IC50 antiplatelet aggregation activity, ADP” value is reported as “did not show an effect”.
On the same counts, the results for `C[C@@H]1C(=O)O[C@H]2[C@@H](O)[C@@]34[C@H]5C[C@@H](C(C)(C)C)[C@]36[C@@H](OC(=O)[C@@H]6O)O[C@@]4(C(=O)O5)[C@@]12O` [Gingkolide B] are 3.32, “inhibited collagen-stimulated platelet aggregation in a concentration-dependent manner”, “did not occur” and “did not show an effect”.
